The NIST ThermoML archive (doi:10.1016/j.jct.2017.07.004)

Experiment: xn = mol fraction of the nth substance listed
Details: 100 kPa, Liquid; for viscosity: Concentric cylinders viscometry; for mass density: Vibrating tube method

CCC=O [propanal] + CCC(C)O
Details | mass density [kg/m3] | viscosity [mPa·s]
293.15 K, x1 = 0.0811 | 810.5 | 3.49
293.15 K, x1 = 0.16 | 813.1 | 3.29
293.15 K, x1 = 0.24 | 815.1 | 3.06
293.15 K, x1 = 0.35 | 817 | 2.72
293.15 K, x1 = 0.44 | 817.8 | 2.42
293.15 K, x1 = 0.56 | 817.7 | 2
293.15 K, x1 = 0.6499 | 816.7 | 1.67
293.15 K, x1 = 0.7401 | 814.7 | 1.34
293.15 K, x1 = 0.8501 | 810.8 | 0.92
293.15 K, x1 = 0.9401 | 806.5 | 0.58
293.15 K, x1 = 1 | 802.4 | 0.34
298.15 K, x1 = 0.0811 | 806 | 2.89
298.15 K, x1 = 0.16 | 808.4 | 2.73
298.15 K, x1 = 0.24 | 810.3 | 2.55
298.15 K, x1 = 0.35 | 811.8 | 2.27
298.15 K, x1 = 0.44 | 812.3 | 2.03
298.15 K, x1 = 0.56 | 811.8 | 1.68
298.15 K, x1 = 0.6499 | 810.5 | 1.41
298.15 K, x1 = 0.7401 | 808.4 | 1.14
298.15 K, x1 = 0.8501 | 804.5 | 0.8
298.15 K, x1 = 0.9401 | 800 | 0.52
298.15 K, x1 = 1 | 796.2 | 0.33
303.15 K, x1 = 0.0811 | 801.1 | 2.41
303.15 K, x1 = 0.16 | 803.2 | 2.27
303.15 K, x1 = 0.24 | 804.8 | 2.12
303.15 K, x1 = 0.35 | 806 | 1.89
303.15 K, x1 = 0.44 | 806.5 | 1.69
303.15 K, x1 = 0.56 | 805.7 | 1.41
303.15 K, x1 = 0.6499 | 804.3 | 1.19
303.15 K, x1 = 0.7401 | 802 | 0.97
303.15 K, x1 = 0.8501 | 798 | 0.69
303.15 K, x1 = 0.9401 | 794 | 0.46
303.15 K, x1 = 1 | 790.3 | 0.31
308.15 K, x1 = 0.0811 | 796.4 | 2.02
308.15 K, x1 = 0.16 | 798 | 1.9
308.15 K, x1 = 0.24 | 799.4 | 1.77
308.15 K, x1 = 0.35 | 800.3 | 1.58
308.15 K, x1 = 0.44 | 800.4 | 1.41
308.15 K, x1 = 0.56 | 799.5 | 1.18
308.15 K, x1 = 0.6499 | 798.1 | 1.01
308.15 K, x1 = 0.7401 | 795.9 | 0.82
308.15 K, x1 = 0.8501 | 791.8 | 0.6
308.15 K, x1 = 0.9401 | 788 | 0.42
308.15 K, x1 = 1 | 784.5 | 0.3
313.15 K, x1 = 0.0811 | 791.7 | 1.71
313.15 K, x1 = 0.16 | 793 | 1.61
313.15 K, x1 = 0.24 | 794 | 1.5
313.15 K, x1 = 0.35 | 794.6 | 1.34
313.15 K, x1 = 0.44 | 794.6 | 1.2
313.15 K, x1 = 0.56 | 793.5 | 1.01
313.15 K, x1 = 0.6499 | 792 | 0.86
313.15 K, x1 = 0.7401 | 789.8 | 0.72
313.15 K, x1 = 0.8501 | 786 | 0.53
313.15 K, x1 = 0.9401 | 782.4 | 0.38
313.15 K, x1 = 1 | 779 | 0.28
318.15 K, x1 = 0.0811 | 786.8 | 1.45
318.15 K, x1 = 0.16 | 787.9 | 1.36
318.15 K, x1 = 0.24 | 788.6 | 1.27
318.15 K, x1 = 0.35 | 789.1 | 1.13
318.15 K, x1 = 0.44 | 788.8 | 1.02
318.15 K, x1 = 0.56 | 787.6 | 0.86
318.15 K, x1 = 0.6499 | 786.1 | 0.74
318.15 K, x1 = 0.7401 | 783.8 | 0.62
318.15 K, x1 = 0.8501 | 780 | 0.47
318.15 K, x1 = 0.9401 | 776.5 | 0.35
318.15 K, x1 = 1 | 773.5 | 0.27
323.15 K, x1 = 0.0811 | 781.9 | 1.25
323.15 K, x1 = 0.16 | 782.6 | 1.17
323.15 K, x1 = 0.24 | 783.1 | 1.09
323.15 K, x1 = 0.35 | 783.2 | 0.97
323.15 K, x1 = 0.44 | 782.8 | 0.87
323.15 K, x1 = 0.56 | 781.5 | 0.74
323.15 K, x1 = 0.6499 | 779.8 | 0.64
323.15 K, x1 = 0.7401 | 777.7 | 0.54
323.15 K, x1 = 0.8501 | 774.3 | 0.42
323.15 K, x1 = 0.9401 | 770.9 | 0.32
323.15 K, x1 = 1 | 768.2 | 0.25
